Measurements taken from ChEMBL document CHEMBL3991601, “The target landscape of clinical kinase drugs” (Science, 2017).
The source made the active and inactive calls.

Key:
[1] = molecular target: T1, Tyrosine--tRNA ligase, cytoplasmic (Homo sapiens, UniProt P54577)
T1 sequence (P54577 whole entry): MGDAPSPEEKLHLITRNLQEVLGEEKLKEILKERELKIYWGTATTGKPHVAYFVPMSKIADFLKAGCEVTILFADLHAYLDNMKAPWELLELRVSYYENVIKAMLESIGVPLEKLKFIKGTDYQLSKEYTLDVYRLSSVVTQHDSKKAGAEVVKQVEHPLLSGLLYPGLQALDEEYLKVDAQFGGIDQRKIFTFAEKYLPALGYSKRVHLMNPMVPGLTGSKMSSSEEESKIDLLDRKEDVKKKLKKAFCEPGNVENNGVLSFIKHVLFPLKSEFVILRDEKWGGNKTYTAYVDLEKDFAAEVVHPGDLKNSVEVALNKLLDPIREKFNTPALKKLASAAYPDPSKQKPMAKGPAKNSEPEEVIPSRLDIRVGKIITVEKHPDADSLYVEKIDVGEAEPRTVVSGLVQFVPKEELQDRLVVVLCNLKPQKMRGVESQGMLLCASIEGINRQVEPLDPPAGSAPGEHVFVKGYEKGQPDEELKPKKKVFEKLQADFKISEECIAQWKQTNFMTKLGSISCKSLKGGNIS

[2] = molecular target: T2, Probable ATP-dependent RNA helicase DDX6 (Homo sapiens, UniProt P26196)
T2 sequence (P26196 whole entry): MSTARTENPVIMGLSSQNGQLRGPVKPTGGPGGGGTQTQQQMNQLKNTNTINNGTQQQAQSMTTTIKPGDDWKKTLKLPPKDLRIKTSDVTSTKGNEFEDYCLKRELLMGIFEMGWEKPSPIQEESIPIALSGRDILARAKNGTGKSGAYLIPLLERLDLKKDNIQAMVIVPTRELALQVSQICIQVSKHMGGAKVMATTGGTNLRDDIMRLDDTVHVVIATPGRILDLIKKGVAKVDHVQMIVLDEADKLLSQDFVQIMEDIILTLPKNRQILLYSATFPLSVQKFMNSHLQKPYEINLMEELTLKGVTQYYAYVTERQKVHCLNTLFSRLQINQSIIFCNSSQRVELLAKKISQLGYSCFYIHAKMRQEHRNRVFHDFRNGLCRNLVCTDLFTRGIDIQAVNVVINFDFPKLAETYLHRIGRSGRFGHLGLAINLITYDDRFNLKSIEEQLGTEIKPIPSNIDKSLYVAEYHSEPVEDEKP

GTP-binding protein 4 = GTP-binding protein 4 (Homo sapiens, UniProt Q9BZE4)
Myosin-10 = Myosin-10 (Homo sapiens, UniProt P35580)
DNA topoisomerase 2-beta = DNA topoisomerase 2-beta (Homo sapiens, UniProt Q02880)
[3] = molecular target: Atypical kinase COQ8A, mitochondrial (Homo sapiens, UniProt Q8NI60)
[4] = molecular target: T3, Serine/threonine-protein kinase ULK3 (Homo sapiens, UniProt Q6PHR2)
T3 sequence (Q6PHR2 whole entry): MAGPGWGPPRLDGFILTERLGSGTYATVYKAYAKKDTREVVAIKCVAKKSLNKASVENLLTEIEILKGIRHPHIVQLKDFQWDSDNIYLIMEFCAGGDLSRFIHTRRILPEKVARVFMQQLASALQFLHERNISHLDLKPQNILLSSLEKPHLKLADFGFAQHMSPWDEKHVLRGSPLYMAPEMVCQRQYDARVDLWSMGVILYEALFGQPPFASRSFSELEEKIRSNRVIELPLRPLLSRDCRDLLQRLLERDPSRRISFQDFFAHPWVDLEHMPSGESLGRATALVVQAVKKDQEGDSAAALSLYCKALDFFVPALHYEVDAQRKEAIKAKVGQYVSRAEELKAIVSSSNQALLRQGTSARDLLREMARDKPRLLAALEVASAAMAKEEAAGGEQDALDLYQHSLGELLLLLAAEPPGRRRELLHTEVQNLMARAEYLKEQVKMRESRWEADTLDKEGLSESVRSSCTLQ

[5] = molecular target: Serine/threonine-protein kinase MRCK beta (Homo sapiens, UniProt Q9Y5S2)
[6] = molecular target: BMP-2-inducible protein kinase (Homo sapiens, UniProt Q9NSY1)
[7] = molecular target: T4, Serine/threonine-protein kinase PLK4 (Homo sapiens, UniProt O00444)
T4 sequence (O00444 whole entry): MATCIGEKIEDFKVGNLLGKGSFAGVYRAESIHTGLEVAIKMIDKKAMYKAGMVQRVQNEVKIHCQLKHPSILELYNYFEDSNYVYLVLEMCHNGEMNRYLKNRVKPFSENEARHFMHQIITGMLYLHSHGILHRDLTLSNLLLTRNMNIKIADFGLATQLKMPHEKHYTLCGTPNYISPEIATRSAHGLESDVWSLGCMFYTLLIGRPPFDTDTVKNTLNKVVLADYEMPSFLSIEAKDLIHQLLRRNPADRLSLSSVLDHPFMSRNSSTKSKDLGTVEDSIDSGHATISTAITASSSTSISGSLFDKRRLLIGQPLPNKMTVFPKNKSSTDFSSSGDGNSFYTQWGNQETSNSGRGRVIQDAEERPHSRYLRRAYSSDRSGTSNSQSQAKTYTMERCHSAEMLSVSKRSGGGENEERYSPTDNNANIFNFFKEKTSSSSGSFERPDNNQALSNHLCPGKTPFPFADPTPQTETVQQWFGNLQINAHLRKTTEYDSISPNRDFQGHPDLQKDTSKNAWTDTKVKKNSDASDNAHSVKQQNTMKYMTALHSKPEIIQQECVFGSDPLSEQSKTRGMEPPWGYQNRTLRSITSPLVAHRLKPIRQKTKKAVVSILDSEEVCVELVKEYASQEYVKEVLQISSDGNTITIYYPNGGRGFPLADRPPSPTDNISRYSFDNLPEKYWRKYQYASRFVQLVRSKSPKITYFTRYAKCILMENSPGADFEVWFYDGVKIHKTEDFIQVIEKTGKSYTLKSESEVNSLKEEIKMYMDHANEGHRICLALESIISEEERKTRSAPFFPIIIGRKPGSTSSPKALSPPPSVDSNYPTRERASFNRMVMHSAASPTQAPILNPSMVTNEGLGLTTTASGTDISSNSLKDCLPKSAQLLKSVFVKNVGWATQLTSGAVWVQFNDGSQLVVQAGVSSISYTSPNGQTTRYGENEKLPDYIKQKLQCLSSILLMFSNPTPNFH

[8] = molecular target: Mitogen-activated protein kinase 9 (Homo sapiens, UniProt P45984)
Ephrin type-A receptor 5 = Ephrin type-A receptor 5 (Homo sapiens, UniProt P54756)

Measured: Kd
Further: in the data inactive means no Kd found up to 30 µM.

Chain of Mitogen-activated protein kinase 9 (P45984 whole entry): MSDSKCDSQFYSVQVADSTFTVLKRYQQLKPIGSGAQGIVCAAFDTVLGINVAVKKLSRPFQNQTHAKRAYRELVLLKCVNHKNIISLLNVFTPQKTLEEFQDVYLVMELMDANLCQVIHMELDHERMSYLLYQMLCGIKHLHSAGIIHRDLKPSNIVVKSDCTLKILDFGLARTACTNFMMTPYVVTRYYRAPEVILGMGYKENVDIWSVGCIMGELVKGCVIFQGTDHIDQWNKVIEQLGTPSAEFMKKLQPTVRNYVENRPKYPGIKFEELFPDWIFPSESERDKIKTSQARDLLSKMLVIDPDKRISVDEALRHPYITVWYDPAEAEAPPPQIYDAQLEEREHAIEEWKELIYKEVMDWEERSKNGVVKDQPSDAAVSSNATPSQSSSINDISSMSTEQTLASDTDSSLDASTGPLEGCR
Chain of Serine/threonine-protein kinase MRCK beta (Q9Y5S2 whole entry): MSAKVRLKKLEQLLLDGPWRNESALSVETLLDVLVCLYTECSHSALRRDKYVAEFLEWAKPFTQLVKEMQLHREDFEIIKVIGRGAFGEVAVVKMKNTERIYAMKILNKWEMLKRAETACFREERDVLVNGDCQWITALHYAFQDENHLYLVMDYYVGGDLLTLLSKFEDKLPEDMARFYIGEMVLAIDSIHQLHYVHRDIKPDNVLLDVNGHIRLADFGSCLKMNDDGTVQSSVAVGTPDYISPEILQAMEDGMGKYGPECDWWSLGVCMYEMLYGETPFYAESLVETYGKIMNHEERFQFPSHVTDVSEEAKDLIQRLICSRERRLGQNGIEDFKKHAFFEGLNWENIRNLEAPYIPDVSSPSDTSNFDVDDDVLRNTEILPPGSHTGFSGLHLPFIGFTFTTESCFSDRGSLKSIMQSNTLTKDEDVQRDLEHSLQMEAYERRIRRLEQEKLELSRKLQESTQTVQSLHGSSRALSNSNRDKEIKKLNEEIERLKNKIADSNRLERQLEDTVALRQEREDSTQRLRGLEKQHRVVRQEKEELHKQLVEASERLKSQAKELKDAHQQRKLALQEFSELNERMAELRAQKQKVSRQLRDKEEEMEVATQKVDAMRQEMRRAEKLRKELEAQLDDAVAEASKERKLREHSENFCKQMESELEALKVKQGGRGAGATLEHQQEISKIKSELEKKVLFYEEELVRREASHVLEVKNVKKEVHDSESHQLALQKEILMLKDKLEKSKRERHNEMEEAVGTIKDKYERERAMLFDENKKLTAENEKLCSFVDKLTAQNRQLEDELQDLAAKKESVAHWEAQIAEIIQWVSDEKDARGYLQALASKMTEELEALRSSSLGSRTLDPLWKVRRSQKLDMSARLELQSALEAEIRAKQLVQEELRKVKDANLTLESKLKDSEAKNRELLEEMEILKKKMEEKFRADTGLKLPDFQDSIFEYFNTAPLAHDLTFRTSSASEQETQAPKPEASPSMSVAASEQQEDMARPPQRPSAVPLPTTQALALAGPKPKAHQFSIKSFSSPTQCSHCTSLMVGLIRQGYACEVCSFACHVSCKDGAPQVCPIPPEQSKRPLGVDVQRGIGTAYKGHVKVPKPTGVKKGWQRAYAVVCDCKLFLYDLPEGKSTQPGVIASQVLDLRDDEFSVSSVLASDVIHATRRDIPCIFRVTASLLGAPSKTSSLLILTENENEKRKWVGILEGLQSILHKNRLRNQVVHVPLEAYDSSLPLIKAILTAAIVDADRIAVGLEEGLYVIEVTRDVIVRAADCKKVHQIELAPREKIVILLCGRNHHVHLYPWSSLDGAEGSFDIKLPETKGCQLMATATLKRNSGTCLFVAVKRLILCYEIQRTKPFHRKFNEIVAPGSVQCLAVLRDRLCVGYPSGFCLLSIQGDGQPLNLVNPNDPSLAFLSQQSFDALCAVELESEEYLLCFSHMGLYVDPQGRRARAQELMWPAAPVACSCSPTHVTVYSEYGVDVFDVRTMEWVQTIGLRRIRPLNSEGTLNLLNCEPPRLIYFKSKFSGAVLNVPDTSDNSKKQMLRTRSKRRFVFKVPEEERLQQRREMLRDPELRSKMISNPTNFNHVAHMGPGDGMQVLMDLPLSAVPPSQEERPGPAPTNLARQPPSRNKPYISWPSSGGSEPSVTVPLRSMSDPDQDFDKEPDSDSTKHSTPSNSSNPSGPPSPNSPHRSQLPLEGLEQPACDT
Chain of Ephrin type-A receptor 5 (P54756 whole entry): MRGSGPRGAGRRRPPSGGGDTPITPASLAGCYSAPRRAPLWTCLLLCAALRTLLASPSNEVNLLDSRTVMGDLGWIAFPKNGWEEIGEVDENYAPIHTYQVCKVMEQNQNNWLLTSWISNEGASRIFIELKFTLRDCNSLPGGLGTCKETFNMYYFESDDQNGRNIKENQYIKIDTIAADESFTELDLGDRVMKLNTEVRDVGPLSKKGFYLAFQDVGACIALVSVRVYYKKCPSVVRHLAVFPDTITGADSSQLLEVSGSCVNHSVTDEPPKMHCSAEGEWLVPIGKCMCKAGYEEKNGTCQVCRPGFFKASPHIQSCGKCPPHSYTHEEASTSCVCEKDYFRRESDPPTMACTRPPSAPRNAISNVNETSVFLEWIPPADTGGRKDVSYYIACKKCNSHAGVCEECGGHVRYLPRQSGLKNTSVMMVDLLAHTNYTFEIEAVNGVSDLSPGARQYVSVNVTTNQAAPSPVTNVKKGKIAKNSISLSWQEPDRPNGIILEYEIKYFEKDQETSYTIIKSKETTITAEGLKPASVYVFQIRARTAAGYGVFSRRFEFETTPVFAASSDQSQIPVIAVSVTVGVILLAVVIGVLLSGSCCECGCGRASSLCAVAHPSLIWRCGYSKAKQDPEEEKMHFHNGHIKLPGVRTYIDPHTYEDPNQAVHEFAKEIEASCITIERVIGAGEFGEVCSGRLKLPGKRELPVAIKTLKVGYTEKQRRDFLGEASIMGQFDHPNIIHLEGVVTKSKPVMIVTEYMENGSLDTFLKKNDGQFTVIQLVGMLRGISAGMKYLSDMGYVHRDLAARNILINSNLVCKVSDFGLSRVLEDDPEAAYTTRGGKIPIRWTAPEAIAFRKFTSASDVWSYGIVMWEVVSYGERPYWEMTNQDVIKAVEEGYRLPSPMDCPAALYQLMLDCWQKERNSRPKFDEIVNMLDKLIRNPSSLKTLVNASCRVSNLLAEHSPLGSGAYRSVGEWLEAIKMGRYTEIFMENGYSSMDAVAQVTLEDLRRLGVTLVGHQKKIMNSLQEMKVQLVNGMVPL
Chain of Myosin-10 (P35580 whole entry): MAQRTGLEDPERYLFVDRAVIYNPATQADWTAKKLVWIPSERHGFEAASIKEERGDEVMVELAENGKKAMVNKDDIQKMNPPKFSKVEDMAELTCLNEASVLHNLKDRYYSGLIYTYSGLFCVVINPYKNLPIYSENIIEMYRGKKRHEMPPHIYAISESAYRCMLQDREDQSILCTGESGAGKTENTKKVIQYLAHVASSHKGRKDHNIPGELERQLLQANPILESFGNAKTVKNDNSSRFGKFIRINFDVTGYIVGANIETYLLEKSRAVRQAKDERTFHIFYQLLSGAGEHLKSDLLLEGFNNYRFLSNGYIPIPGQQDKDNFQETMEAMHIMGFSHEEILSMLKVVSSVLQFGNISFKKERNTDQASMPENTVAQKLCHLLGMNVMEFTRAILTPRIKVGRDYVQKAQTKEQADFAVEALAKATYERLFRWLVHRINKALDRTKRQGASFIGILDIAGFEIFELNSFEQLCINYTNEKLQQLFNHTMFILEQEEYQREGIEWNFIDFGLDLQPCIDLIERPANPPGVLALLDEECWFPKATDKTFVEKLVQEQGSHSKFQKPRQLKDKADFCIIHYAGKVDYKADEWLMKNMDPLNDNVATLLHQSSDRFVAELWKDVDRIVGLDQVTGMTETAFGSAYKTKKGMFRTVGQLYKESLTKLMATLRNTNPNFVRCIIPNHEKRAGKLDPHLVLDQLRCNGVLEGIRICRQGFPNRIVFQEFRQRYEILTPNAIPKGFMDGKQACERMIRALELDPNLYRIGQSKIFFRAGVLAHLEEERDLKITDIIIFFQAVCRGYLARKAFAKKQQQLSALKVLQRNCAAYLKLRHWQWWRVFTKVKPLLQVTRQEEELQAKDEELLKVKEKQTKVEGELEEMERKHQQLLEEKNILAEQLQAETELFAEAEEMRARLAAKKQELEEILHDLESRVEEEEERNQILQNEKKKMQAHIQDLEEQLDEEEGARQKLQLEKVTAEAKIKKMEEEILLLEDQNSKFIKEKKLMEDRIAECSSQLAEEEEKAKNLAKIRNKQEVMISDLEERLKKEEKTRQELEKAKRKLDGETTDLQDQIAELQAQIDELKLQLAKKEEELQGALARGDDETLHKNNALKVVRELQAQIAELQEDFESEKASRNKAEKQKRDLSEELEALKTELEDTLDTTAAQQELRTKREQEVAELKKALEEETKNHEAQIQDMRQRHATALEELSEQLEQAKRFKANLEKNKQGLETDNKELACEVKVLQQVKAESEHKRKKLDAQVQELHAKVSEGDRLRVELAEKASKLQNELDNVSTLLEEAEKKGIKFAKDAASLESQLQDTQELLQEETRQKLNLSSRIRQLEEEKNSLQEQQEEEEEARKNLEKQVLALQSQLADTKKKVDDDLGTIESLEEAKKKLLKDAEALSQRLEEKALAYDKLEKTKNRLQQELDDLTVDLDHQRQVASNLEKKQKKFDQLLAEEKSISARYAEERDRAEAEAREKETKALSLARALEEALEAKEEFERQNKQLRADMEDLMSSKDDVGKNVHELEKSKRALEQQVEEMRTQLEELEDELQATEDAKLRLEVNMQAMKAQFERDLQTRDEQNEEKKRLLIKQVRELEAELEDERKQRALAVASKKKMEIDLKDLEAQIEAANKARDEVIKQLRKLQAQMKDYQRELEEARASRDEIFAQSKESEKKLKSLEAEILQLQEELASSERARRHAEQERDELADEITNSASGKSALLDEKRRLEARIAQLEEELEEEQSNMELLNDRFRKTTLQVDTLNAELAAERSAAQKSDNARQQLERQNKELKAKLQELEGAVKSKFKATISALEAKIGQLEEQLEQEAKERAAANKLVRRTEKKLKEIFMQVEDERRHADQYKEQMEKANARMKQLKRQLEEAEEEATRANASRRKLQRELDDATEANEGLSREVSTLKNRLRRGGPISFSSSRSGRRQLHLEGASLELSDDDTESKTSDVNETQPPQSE

CNC(=O)c1ccccc1Sc1ccc2c(/C=C/c3ccccn3)n[nH]c2c1 [AXITINIB]
inactive: [1] > 30 µM | [2] > 30 µM | GTP-binding protein 4 > 30 µM | Myosin-10 > 30 µM | DNA topoisomerase 2-beta > 30 µM

CC(C)(C)c1nc(-c2cccc(NS(=O)(=O)c3c(F)cccc3F)c2F)c(-c2ccnc(N)n2)s1 [DABRAFENIB]
inactive: [1] > 30 µM | [2] > 30 µM | [3] > 30 µM | [5] > 30 µM | [6] > 30 µM | GTP-binding protein 4 > 30 µM | Myosin-10 > 30 µM | DNA topoisomerase 2-beta > 30 µM
1.48 µM: [4]
active: [7] 0.52 µM

Cn1cc(C2=C(c3cn(C4CCN(Cc5ccccn5)CC4)c4ccccc34)C(=O)NC2=O)c2ccccc21 [ENZASTAURIN]
inactive: [1] > 30 µM | [2] > 30 µM | GTP-binding protein 4 > 30 µM | Myosin-10 > 30 µM | DNA topoisomerase 2-beta > 30 µM

Cc1cccc(-c2nn3c(c2-c2ccnc4ccc(C(N)=O)cc24)CCC3)n1 [GALUNISERTIB]
12.2 µM: [3]
inactive: [1] > 30 µM | [2] > 30 µM | [8] > 30 µM | [4] > 30 µM | Ephrin type-A receptor 5 > 30 µM | [5] > 30 µM | [6] > 30 µM | [7] > 30 µM | GTP-binding protein 4 > 30 µM | DNA topoisomerase 2-beta > 30 µM

C[C@@H](Oc1cc(-n2cnc3ccc(CN4CCN(C)CC4)cc32)sc1C(N)=O)c1ccccc1C(F)(F)F [GSK-461364]
inactive: [1] > 30 µM | [2] > 30 µM | GTP-binding protein 4 > 30 µM | Myosin-10 > 30 µM | DNA topoisomerase 2-beta > 30 µM

CCn1cc(-c2ccnc3[nH]c(-c4cccc(CN(C)C)c4)cc23)c(-c2ccc(NC(=O)N(C)C)cc2)n1 [GSK-1070916]
inactive: [1] > 30 µM | [2] > 30 µM | [3] > 30 µM | [4] > 30 µM | Ephrin type-A receptor 5 > 30 µM | [5] > 30 µM | GTP-binding protein 4 > 30 µM | Myosin-10 > 30 µM | DNA topoisomerase 2-beta > 30 µM

Cn1cc(-c2cnc3ccc4ccc(CS(=O)(=O)NCc5ccccn5)cc4c(=O)c3c2)cn1 [MK-8033]
inactive: [1] > 30 µM | [2] > 30 µM | [8] > 30 µM | [3] > 30 µM | [4] > 30 µM | Ephrin type-A receptor 5 > 30 µM | [5] > 30 µM | [6] > 30 µM | [7] > 30 µM | GTP-binding protein 4 > 30 µM | DNA topoisomerase 2-beta > 30 µM

Cc1[nH]c(/C=C2\C(=O)Nc3ccccc32)c(C)c1CCC(=O)O [ORANTINIB]
active: [4] 1.46 µM | [6] 0.303 µM
inactive: [1] > 30 µM | [2] > 30 µM | [3] > 30 µM | Ephrin type-A receptor 5 > 30 µM | [5] > 30 µM | GTP-binding protein 4 > 30 µM | Myosin-10 > 30 µM | DNA topoisomerase 2-beta > 30 µM

NC(=O)c1c(OCc2c(F)cc(Br)cc2F)nsc1NC(=O)NCCCCN1CCCC1 [OSI-632]
inactive: [1] > 30 µM | [2] > 30 µM | [4] > 30 µM | Ephrin type-A receptor 5 > 30 µM | [5] > 30 µM | [6] > 30 µM | GTP-binding protein 4 > 30 µM | Myosin-10 > 30 µM | DNA topoisomerase 2-beta > 30 µM
3.05 µM: [3]

Cc1nc(Nc2n[nH]c3c2CN(C(=O)N[C@H](CN(C)C)c2ccccc2)C3(C)C)c2sccc2n1 [PF-03758309]
active: [4] 0.626 µM | [6] 2.54 µM | [7] 0.668 µM
inactive: [1] > 30 µM | [2] > 30 µM | [8] > 30 µM | [3] > 30 µM | Ephrin type-A receptor 5 > 30 µM | [5] > 30 µM | GTP-binding protein 4 > 30 µM | DNA topoisomerase 2-beta > 30 µM

CC(=O)NCC(=O)N1[C@@H]2CC[C@H]1c1ccc(Nc3ncc(C(F)(F)F)c(NC4CCC4)n3)cc12 [PF-03814735]
active: [4] 0.019 µM | [6] 0.015 µM
inactive: [1] > 30 µM | [2] > 30 µM | [3] > 30 µM | Ephrin type-A receptor 5 > 30 µM | [5] > 30 µM | Myosin-10 > 30 µM | DNA topoisomerase 2-beta > 30 µM

N#CC[C@H](C1CCCC1)n1cc(-c2ncnc3[nH]ccc23)cn1 [RUXOLITINIB]
inactive: [1] > 30 µM | [2] > 30 µM | GTP-binding protein 4 > 30 µM | Myosin-10 > 30 µM | DNA topoisomerase 2-beta > 30 µM

O=c1[nH]ccc2cc(OC3CCNCC3)ccc12 [SAR-407899 FREE BASE]
0.013 µM: [6]
inactive: [1] > 30 µM | [2] > 30 µM | [8] > 30 µM | [3] > 30 µM | [4] > 30 µM | Ephrin type-A receptor 5 > 30 µM | [7] > 30 µM | GTP-binding protein 4 > 30 µM | DNA topoisomerase 2-beta > 30 µM
active: [5] 0.016 µM

O=C1NC(=O)[C@@H](c2cn3c4c(cccc24)CCC3)[C@@H]1c1c[nH]c2ccccc12 [TIVANTINIB]
inactive: [1] > 30 µM | [2] > 30 µM | [8] > 30 µM | [3] > 30 µM | [4] > 30 µM | Ephrin type-A receptor 5 > 30 µM | [5] > 30 µM | [6] > 30 µM | [7] > 30 µM | GTP-binding protein 4 > 30 µM | DNA topoisomerase 2-beta > 30 µM

CC(C)c1cc(CNc2nc(Nc3cc(C4CC4)[nH]n3)cc(N3CCN(C)CC3)n2)on1 [XL-228]
active: [4] 0.492 µM | Ephrin type-A receptor 5 0.081 µM | [6] 0.014 µM | [7] 0.003 µM
inactive: [1] > 30 µM | [2] > 30 µM | [8] > 30 µM | [3] > 30 µM | [5] > 30 µM | GTP-binding protein 4 > 30 µM | DNA topoisomerase 2-beta > 30 µM
